# Reference: ChEMBL document CHEMBL3885881, “DrugMatrix”
# Species on record: Rattus norvegicus
# Test: DrugMatrix - Regimen: Daily Repeat
# Type: toxicity, organism-based, Sprague-Dawley
# Set-up: regimen Daily Repeat, gender Male, age 6-8 weeks
# Details: in vivo, po, route oral GAVAGE, […]; for ABSOLUTE BASOPHIL / ABSOLUTE EOSINOPHIL / ABSOLUTE LYMPHOCYTE / ABSOLUTE MONOCYTE / ABSOLUTE SEGMENTED NEUTROPHIL / BASOPHIL / EOSINOPHIL / ERYTHROCYTE COUNT / HEMATOCRIT / HEMOGLOBIN / LEUKOCYTE COUNT / LYMPHOCYTE / MEAN CORPUSCULAR HEMOGLOBIN / MEAN CORPUSCULAR HEMOGLOBIN CONCENTRATION / MEAN CORPUSCULAR VOLUME / MONOCYTE / NEUTROPHIL / NUCLEATED RED BLOOD CELLS / PLATELET COUNT: tissue Blood; for ALANINE AMINOTRANSFERASE / ALBUMIN / ALKALINE PHOSPHATASE / ASPARTATE AMINOTRANSFERASE / BLOOD UREA NITROGEN / CARBON DIOXIDE / CHLORIDE / CHOLESTEROL / CREATINE PHOSPHOKINASE / CREATININE / GLUCOSE / LACTATE DEHYDROGENASE / LIPASE / PHOSPHORUS / POTASSIUM / SODIUM / TOTAL BILIRUBIN / TOTAL PROTEIN / URIC ACID: tissue Plasma
# [1] = 13 mg/kg, 120 h, dose level Low, time 5 day
# [2] = 40 mg/kg, 72 h, dose level High, time 3 day
# [3] = 40 mg/kg, 120 h, dose level High, time 5 day
smiles,measurement,setting,value
CN(C)c1nc(N(C)C)nc(N(C)C)n1 [ALTRETAMINE],ABSOLUTE BASOPHIL,[1],0 CELLS/uL
same,ABSOLUTE EOSINOPHIL,[1],0 CELLS/uL
same,ABSOLUTE LYMPHOCYTE,[1],9932 CELLS/uL
same,ABSOLUTE MONOCYTE,[1],0 CELLS/uL
same,ABSOLUTE SEGMENTED NEUTROPHIL,[1],334.67 CELLS/uL
same,BASOPHIL,[1],0%
same,EOSINOPHIL,[1],0%
same,ERYTHROCYTE COUNT,[1],5.3 x10E6/uL
same,HEMATOCRIT,[1],32.5%
same,HEMOGLOBIN,[1],12.67 G/DL
same,LEUKOCYTE COUNT,[1],10.27 x10E3/uL
same,LYMPHOCYTE,[1],96.33%
same,MEAN CORPUSCULAR HEMOGLOBIN,[1],23.93 pg
same,MEAN CORPUSCULAR HEMOGLOBIN CONCENTRATION,[1],38.97 G/DL
same,MEAN CORPUSCULAR VOLUME,[1],61.4 fL
same,MONOCYTE,[1],0%
same,NEUTROPHIL,[1],3.67%
same,NUCLEATED RED BLOOD CELLS,[1],0 /100WBC
same,PLATELET COUNT,[1],759.33 x10E3/uL
same,ALANINE AMINOTRANSFERASE,[1],60.67 u/L
same,ALBUMIN,[1],4.13 G/DL
same,ALKALINE PHOSPHATASE,[1],323.67 u/L
same,ASPARTATE AMINOTRANSFERASE,[1],87 u/L
same,BLOOD UREA NITROGEN,[1],13.33 mg/dL
same,CARBON DIOXIDE,[1],29.67 mmol/L
same,CHLORIDE,[1],98 MEQ/L
same,CHOLESTEROL,[1],69.67 mg/dL
same,CREATINE PHOSPHOKINASE,[1],230.33 u/L
same,CREATININE,[1],0.15 mg/dL
same,GLUCOSE,[1],150 mg/dL
same,LACTATE DEHYDROGENASE,[1],137.67 u/L
same,LIPASE,[1],22 u/L
same,PHOSPHORUS,[1],10.3 mg/dL
same,POTASSIUM,[1],5.84 MEQ/L
same,SODIUM,[1],143.3 MEQ/L
same,TOTAL BILIRUBIN,[1],0.1 mg/dL
same,TOTAL PROTEIN,[1],5.83 G/DL
same,URIC ACID,[1],0.87 mg/dL
same,ABSOLUTE BASOPHIL,[2],0 CELLS/uL
same,ABSOLUTE EOSINOPHIL,[2],41 CELLS/uL
same,ABSOLUTE LYMPHOCYTE,[2],13401 CELLS/uL
same,ABSOLUTE MONOCYTE,[2],108.67 CELLS/uL
same,ABSOLUTE SEGMENTED NEUTROPHIL,[2],749.33 CELLS/uL
same,BASOPHIL,[2],0%
same,EOSINOPHIL,[2],0.33%
same,ERYTHROCYTE COUNT,[2],5.98 x10E6/uL
same,HEMATOCRIT,[2],37.43%
same,HEMOGLOBIN,[2],14.53 G/DL
same,LEUKOCYTE COUNT,[2],14.3 x10E3/uL
same,LYMPHOCYTE,[2],93.67%
same,MEAN CORPUSCULAR HEMOGLOBIN,[2],24.33 pg
same,MEAN CORPUSCULAR HEMOGLOBIN CONCENTRATION,[2],38.83 G/DL
same,MEAN CORPUSCULAR VOLUME,[2],62.7 fL
same,MONOCYTE,[2],0.67%
same,NEUTROPHIL,[2],5.33%
same,NUCLEATED RED BLOOD CELLS,[2],0 /100WBC
same,PLATELET COUNT,[2],1084 x10E3/uL
same,ALANINE AMINOTRANSFERASE,[2],107.67 u/L
same,ALBUMIN,[2],4.17 G/DL
same,ALKALINE PHOSPHATASE,[2],335.33 u/L
same,ASPARTATE AMINOTRANSFERASE,[2],98.67 u/L
same,BLOOD UREA NITROGEN,[2],12.33 mg/dL
same,CARBON DIOXIDE,[2],26.33 mmol/L
same,CHLORIDE,[2],100.67 MEQ/L
same,CHOLESTEROL,[2],73 mg/dL
same,CREATINE PHOSPHOKINASE,[2],457.67 u/L
same,CREATININE,[2],0.17 mg/dL
same,GLUCOSE,[2],160.67 mg/dL
same,LACTATE DEHYDROGENASE,[2],170.67 u/L
same,LIPASE,[2],10.67 u/L
same,PHOSPHORUS,[2],10.97 mg/dL
same,POTASSIUM,[2],6.05 MEQ/L
same,SODIUM,[2],140.73 MEQ/L
same,TOTAL BILIRUBIN,[2],0.2 mg/dL
same,TOTAL PROTEIN,[2],5.73 G/DL
same,URIC ACID,[2],1.97 mg/dL
same,ABSOLUTE BASOPHIL,[3],0 CELLS/uL
same,ABSOLUTE EOSINOPHIL,[3],0 CELLS/uL
same,ABSOLUTE LYMPHOCYTE,[3],8752.67 CELLS/uL
same,ABSOLUTE MONOCYTE,[3],0 CELLS/uL
same,ABSOLUTE SEGMENTED NEUTROPHIL,[3],580.67 CELLS/uL
same,BASOPHIL,[3],0%
same,EOSINOPHIL,[3],0%
same,ERYTHROCYTE COUNT,[3],5.98 x10E6/uL
same,HEMATOCRIT,[3],36.53%
same,HEMOGLOBIN,[3],14.1 G/DL
same,LEUKOCYTE COUNT,[3],9.33 x10E3/uL
same,LYMPHOCYTE,[3],94.33%
same,MEAN CORPUSCULAR HEMOGLOBIN,[3],23.67 pg
same,MEAN CORPUSCULAR HEMOGLOBIN CONCENTRATION,[3],38.6 G/DL
same,MEAN CORPUSCULAR VOLUME,[3],61.23 fL
same,MONOCYTE,[3],0%
same,NEUTROPHIL,[3],5.67%
same,NUCLEATED RED BLOOD CELLS,[3],0 /100WBC
same,PLATELET COUNT,[3],779.67 x10E3/uL
same,ALANINE AMINOTRANSFERASE,[3],65.33 u/L
same,ALBUMIN,[3],4 G/DL
same,ALKALINE PHOSPHATASE,[3],406 u/L
same,ASPARTATE AMINOTRANSFERASE,[3],87.67 u/L
same,BLOOD UREA NITROGEN,[3],12.67 mg/dL
same,CARBON DIOXIDE,[3],34 mmol/L
same,CHLORIDE,[3],97.67 MEQ/L
same,CHOLESTEROL,[3],55.33 mg/dL
same,CREATINE PHOSPHOKINASE,[3],274.33 u/L
same,CREATININE,[3],0.15 mg/dL
same,GLUCOSE,[3],151 mg/dL
same,LACTATE DEHYDROGENASE,[3],133.67 u/L
same,LIPASE,[3],10 u/L
same,PHOSPHORUS,[3],10.63 mg/dL
same,POTASSIUM,[3],5.18 MEQ/L
same,SODIUM,[3],142.9 MEQ/L
same,TOTAL BILIRUBIN,[3],0.17 mg/dL
same,TOTAL PROTEIN,[3],5.77 G/DL
same,URIC ACID,[3],0.47 mg/dL
